How the values were obtained:
[1] = test system: OVCAR-3; assay: OVCAR-3 viability assay (CellTiter-Glo, 72 hours); type: cell-based; conditions: Homo sapiens; OVCAR-3 cells
Summary of the method: (§1)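 Each line was plated at its own density (1×10^4, 5×10^3 and 1×10^3 cells/well for MV4-11, OVCAR-3 and A2780 respectively) in RPMI-1640 with 10% FBS. Treatment with compound, 0.0015 uM to 10 uM and DMSO under 0.1%, lasted 72 h. Surviving cells were quantified by CellTiter-Glo.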

[2] = biological target: T1, CDK2/Cyclin A (Homo sapiens, UniProt P24941); assay: Enzymatic assay for CDK2 (LANCE Ultra kinase assay, FRET based); type: biochemical; conditions: ATP at Km
T1 construct: purchased Invitrogen PV6290
Summary of the method: (§2)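 Inhibition was measured at ATP Km with 68 nM ULight-MBP peptide and CDK2/Cyclin A ([…]) or CDK5/p25 ([…]), using 8-dose 4-fold compound dilutions from DMSO. Kinase reaction ran 60 min at 23° C, then Eu anti-phospho-MBP plus EDTA were added for another 60 min before the fluorescence read.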

[3] = biological target: T2, CDK5/p25 (Homo sapiens, UniProt Q00535); assay: Enzymatic assay for CDK5 (LANCE Ultra kinase assay, FRET based); type: biochemical; conditions: ATP at Km
T2 construct: purchased Invitrogen PR8543B
Summary of the method: as §2

[4] = test system: MV4-11; assay: Cellular MV4-11 viability assay (CellTiter-Glo, 72 hours); type: cell-based; conditions: Homo sapiens; MV4-11 cells
Summary of the method: as §1

[5] = test system: A2780; assay: A2780 viability assay (CellTiter-Glo, 72 hours); type: cell-based; conditions: Homo sapiens; A2780 cells
Summary of the method: as §1

[6] = biological target: T3, CDK7/Cyclin H/MNAT1 (Homo sapiens, UniProt P50613); assay: Enzymatic assay for CDK7 (LANCE Ultra kinase assay, FRET based); type: biochemical; conditions: for IC50: ATP at Km
T3 construct: purchased Invitrogen PR6749B
Summary of the method: (§3)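 Kinase activity of each purified CDK/cyclin complex was followed in a FRET format where a Europium anti-phospho-antibody recognises phosphorylated ULight-labeled peptide. ATP was held at its Km.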

[7] = biological target: T4, CDK1/Cyclin B (Homo sapiens, UniProt P06493); assay: Enzymatic assay for CDK1 (LANCE Ultra kinase assay, FRET based); type: biochemical; conditions: ATP at Km; read-out: CDK1 enzymatic activity IC50
T4 construct: purchased Invitrogen PR4768C
Summary of the method: as §3

T2 sequence (Q00535 whole entry): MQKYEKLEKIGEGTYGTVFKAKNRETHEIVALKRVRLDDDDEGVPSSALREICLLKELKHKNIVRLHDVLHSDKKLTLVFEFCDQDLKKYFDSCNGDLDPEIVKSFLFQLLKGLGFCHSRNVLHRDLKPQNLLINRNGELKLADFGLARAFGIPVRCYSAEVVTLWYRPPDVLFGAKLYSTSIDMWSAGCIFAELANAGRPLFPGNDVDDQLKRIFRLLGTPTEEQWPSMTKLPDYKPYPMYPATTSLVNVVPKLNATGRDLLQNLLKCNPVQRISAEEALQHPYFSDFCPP
T2 sequence (Q15078 99-307 partner limits assumed): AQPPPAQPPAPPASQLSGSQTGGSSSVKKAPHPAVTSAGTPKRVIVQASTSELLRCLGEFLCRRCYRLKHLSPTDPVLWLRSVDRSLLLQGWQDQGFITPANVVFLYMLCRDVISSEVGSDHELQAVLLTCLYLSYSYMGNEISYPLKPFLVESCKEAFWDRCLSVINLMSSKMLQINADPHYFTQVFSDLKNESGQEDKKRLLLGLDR
T3 sequence (P50613 whole entry): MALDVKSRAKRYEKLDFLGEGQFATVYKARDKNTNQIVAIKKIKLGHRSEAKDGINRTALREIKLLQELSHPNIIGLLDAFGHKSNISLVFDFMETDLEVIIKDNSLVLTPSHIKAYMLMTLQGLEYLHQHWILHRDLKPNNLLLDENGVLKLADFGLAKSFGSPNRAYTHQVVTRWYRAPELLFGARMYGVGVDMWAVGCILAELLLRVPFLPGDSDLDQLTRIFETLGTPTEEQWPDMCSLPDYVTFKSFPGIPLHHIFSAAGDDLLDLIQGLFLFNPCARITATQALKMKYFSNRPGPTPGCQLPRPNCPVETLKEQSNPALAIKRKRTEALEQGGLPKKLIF
T3 sequence (P51946 whole entry partner): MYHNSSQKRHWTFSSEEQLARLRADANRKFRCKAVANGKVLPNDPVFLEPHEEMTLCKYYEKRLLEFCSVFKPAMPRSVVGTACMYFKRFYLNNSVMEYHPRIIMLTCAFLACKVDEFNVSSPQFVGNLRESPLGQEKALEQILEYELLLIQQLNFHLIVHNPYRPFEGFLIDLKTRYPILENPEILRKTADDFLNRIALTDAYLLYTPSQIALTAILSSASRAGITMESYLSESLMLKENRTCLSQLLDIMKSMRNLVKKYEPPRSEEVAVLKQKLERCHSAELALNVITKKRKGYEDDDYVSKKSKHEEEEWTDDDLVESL
T3 sequence (P51948 whole entry partner): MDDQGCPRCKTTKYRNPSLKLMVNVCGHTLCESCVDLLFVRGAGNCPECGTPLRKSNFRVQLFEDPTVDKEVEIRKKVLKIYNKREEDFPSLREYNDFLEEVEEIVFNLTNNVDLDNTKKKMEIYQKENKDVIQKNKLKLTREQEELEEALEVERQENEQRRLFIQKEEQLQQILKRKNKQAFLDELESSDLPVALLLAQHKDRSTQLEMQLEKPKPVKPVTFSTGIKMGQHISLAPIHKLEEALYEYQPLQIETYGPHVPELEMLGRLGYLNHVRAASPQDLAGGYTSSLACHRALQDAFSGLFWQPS
T4 sequence (P06493 whole entry): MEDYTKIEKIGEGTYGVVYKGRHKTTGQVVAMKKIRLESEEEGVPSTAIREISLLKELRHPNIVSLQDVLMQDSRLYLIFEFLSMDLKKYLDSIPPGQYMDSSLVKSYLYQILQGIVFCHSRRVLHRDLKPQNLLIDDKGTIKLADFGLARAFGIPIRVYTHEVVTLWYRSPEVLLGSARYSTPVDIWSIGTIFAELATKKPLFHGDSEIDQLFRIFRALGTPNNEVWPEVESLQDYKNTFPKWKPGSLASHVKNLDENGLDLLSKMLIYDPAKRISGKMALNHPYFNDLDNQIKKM
T4 sequence (P14635 whole entry partner): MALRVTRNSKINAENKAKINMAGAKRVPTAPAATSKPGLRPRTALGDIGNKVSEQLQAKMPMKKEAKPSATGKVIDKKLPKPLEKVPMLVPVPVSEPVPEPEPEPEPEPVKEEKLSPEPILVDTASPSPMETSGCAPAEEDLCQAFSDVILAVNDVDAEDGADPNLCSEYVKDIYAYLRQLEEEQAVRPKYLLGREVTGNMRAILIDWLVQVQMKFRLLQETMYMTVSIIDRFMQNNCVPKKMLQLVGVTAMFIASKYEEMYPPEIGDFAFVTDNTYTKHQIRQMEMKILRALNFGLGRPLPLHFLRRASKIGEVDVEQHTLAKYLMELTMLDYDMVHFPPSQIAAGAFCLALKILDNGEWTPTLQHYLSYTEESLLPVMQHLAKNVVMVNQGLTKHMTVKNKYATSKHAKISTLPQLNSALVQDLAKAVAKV

IC50 [1]	IC50 [2]	IC50 [3]	IC50 [4]	IC50 [5]	IC50 [6]	CDK1/CDK7: Selectivity of CDK7 inhibition over CDK1 inhibition [6]	CDK2/CDK7: Selectivity of CDK7 inhibition over CDK2 inhibition [6]	CDK5/CDK7: Selectivity of CDK7 inhibition over CDK5 inhibition [6]	IC50 [7]	Structure (SMILES)
< 1000 nM	> 1000 nM	> 1000 nM	< 1000 nM	< 1000 nM	< 100 nM	A (A indicates [fold] > 500)	A (A indicates [fold] > 500)	A (A indicates [fold] > 500)	> 1000 nM	C/C=C/C(=O)Nc1ccc2c(-c3ccccc3CNc3nc(N4CCC(N)CC4)nc4c(C(C)C)cnn34)nccc2c1 [Compound 50]
< 1000 nM	> 1000 nM	> 1000 nM	< 1000 nM	< 1000 nM	< 100 nM	A (A indicates [fold] > 500)	A (A indicates [fold] > 500)	A (A indicates [fold] > 500)	> 1000 nM	CC(C)c1cnn2c(NCc3ccccc3-c3nccc4cc(NC(=O)/C=C/CN5CCCCC5)ccc34)nc(N3CCC(N)CC3)nc12 [Compound 52]
< 1000 nM	> 1000 nM	> 1000 nM	< 1000 nM	< 1000 nM	< 100 nM	A (A indicates [fold] > 500)	A (A indicates [fold] > 500)	A (A indicates [fold] > 500)	> 1000 nM	CC(C)c1cnn2c(NCc3ccccc3-c3nccc4cc(NC(=O)/C=C/CN5CCOCC5)ccc34)nc(N3CCC(N)CC3)nc12 [Compound 53]
< 1000 nM	> 1000 nM	> 1000 nM	< 1000 nM	< 1000 nM	< 100 nM	A (A indicates [fold] > 500)	A (A indicates [fold] > 500)	A (A indicates [fold] > 500)	> 1000 nM	COC/C=C/C(=O)Nc1ccc2c(-c3ccccc3CNc3nc(N4CCC(N)CC4)nc4c(C(C)C)cnn34)nccc2c1 [Compound 54]
< 1000 nM	> 1000 nM	> 1000 nM	< 1000 nM	< 1000 nM	< 100 nM	A (A indicates [fold] > 500)	A (A indicates [fold] > 500)	B (B indicates 50 < [fold] ≤ 500)	> 1000 nM	CC(C)c1cnn2c(NCc3ccccc3-c3ccnc4cc(NC(=O)/C=C/CN(C)C)ccc34)nc(N3CCC(N)CC3)nc12 [Compound 55]
< 1000 nM	> 1000 nM	> 1000 nM	< 1000 nM	< 1000 nM	< 100 nM	A (A indicates [fold] > 500)	A (A indicates [fold] > 500)	A (A indicates [fold] > 500)	> 1000 nM	Cc1cccc(-c2ccc3cccc(NC(=O)/C=C/CN(C)C)c3n2)c1CNc1nc(N2CCC(N)CC2)nc2c(C(C)C)cnn12 [Compound 56]
< 1000 nM	> 1000 nM	> 1000 nM	< 1000 nM	< 1000 nM	< 100 nM	A (A indicates [fold] > 500)	A (A indicates [fold] > 500)	A (A indicates [fold] > 500)	> 1000 nM	CC(C)c1cnn2c(NCc3ccccc3-c3nccc4cc(NC(=O)/C=C/CN5CCCC5)ccc34)nc(N3CCC(N)CC3)nc12 [Compound 57]
1000 to 10000 nM	> 1000 nM	> 1000 nM	< 1000 nM	1000 to 10000 nM	< 100 nM	A (A indicates [fold] > 500)	A (A indicates [fold] > 500)	A (A indicates [fold] > 500)	> 1000 nM	CC(C)c1cnn2c(NCc3ccccc3-c3nccc4cc(NC(=O)/C=C/CN(C)CC(N)=O)ccc34)nc(N3CCC(N)CC3)nc12 [Compound 58]
< 1000 nM	> 1000 nM	> 1000 nM	< 1000 nM	< 1000 nM	< 100 nM	A (A indicates [fold] > 500)	A (A indicates [fold] > 500)	A (A indicates [fold] > 500)	> 1000 nM	CC(C)c1cnn2c(NCc3ccccc3-c3nccc4cc(NC(=O)/C=C/CN(C)C)ccc34)nc(N3CCNCC3)nc12 [Compound 59]
< 1000 nM	> 1000 nM	> 1000 nM	< 1000 nM	< 1000 nM	< 100 nM	A (A indicates [fold] > 500)	A (A indicates [fold] > 500)	A (A indicates [fold] > 500)	> 1000 nM	C=CC(=O)Nc1ccc2c(-c3ccccc3CNc3nc(NC[C@H]4CCNC[C@@H]4O)nc4c(C(C)C)cnn34)nccc2c1 [Compound 60]
< 1000 nM	> 1000 nM	> 1000 nM	< 1000 nM	< 1000 nM	< 100 nM	A (A indicates [fold] > 500)	A (A indicates [fold] > 500)	A (A indicates [fold] > 500)	> 1000 nM	COC1CCN(c2nc(NCc3ccccc3-c3nccc4cc(NC(=O)/C=C/CN(C)C)ccc34)n3ncc(C(C)C)c3n2)CC1 [Compound 61]
1000 to 10000 nM	> 1000 nM	> 1000 nM	< 1000 nM	1000 to 10000 nM	< 100 nM	A (A indicates [fold] > 500)	A (A indicates [fold] > 500)	A (A indicates [fold] > 500)	> 1000 nM	CC(C)c1cnn2c(NCc3ccccc3-c3nccc4cc(NC(=O)/C=C/CN(C)C)ccc34)nc(NC3CCNCC3)nc12 [Compound 63]
< 1000 nM	> 1000 nM	> 1000 nM	< 1000 nM	< 1000 nM	< 100 nM	A (A indicates [fold] > 500)	A (A indicates [fold] > 500)	A (A indicates [fold] > 500)	> 1000 nM	C=C(F)C(=O)Nc1ccc2c(-c3ccccc3CNc3nc(NC[C@H]4CCNC[C@@H]4O)nc4c(C(C)C)cnn34)nccc2c1 [Compound 64]
< 1000 nM	> 1000 nM	> 1000 nM	< 1000 nM	< 1000 nM	< 100 nM	A (A indicates [fold] > 500)	A (A indicates [fold] > 500)	A (A indicates [fold] > 500)	> 1000 nM	CC(C)c1cnn2c(NCc3ccccc3-c3nccc4cc(NC(=O)C5=CCCC5)ccc34)nc(NC[C@H]3CCNC[C@@H]3O)nc12 [Compound 65]
< 1000 nM	> 1000 nM	> 1000 nM	< 1000 nM	< 1000 nM	< 100 nM	A (A indicates [fold] > 500)	A (A indicates [fold] > 500)	A (A indicates [fold] > 500)	> 1000 nM	C=C(C)C(=O)Nc1ccc2c(-c3ccccc3CNc3nc(NC[C@H]4CCNC[C@@H]4O)nc4c(C(C)C)cnn34)nccc2c1 [Compound 66]
< 1000 nM	> 1000 nM	> 1000 nM	< 1000 nM	< 1000 nM	< 100 nM	A (A indicates [fold] > 500)	A (A indicates [fold] > 500)	A (A indicates [fold] > 500)	> 1000 nM	C=CC(=O)Nc1cccc2ccc(-c3cccc(C)c3CNc3nc(NC[C@H]4CCNC[C@@H]4O)nc4c(C(C)C)cnn34)nc12 [Compound 67]

From US12606561B2, “Substituted pyrazolo[1,5-a][1,3,5]triazines as CDK inhibitors” (QURIENT CO., LTD., priority 2018, dated 2026)
